Data: the supplement of paper PMC10307832

Assays:
Assay in all cases: relative viability (nuclei count vs DMSO), 5 days (fraction); higher = more cells survive
Ruboxistaurin = compound: CN(C)C[C@@H]1CCn2cc(c3ccccc32)C2=C(C(=O)NC2=O)c2cn(c3ccccc23)CCO1 [Ruboxistaurin]
Summary of the method: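 Cells of lung cancer lines were placed in 1536-well plates and kept overnight at 37 °C. Pinning then delivered five library-drug doses (not always all listed), spaced by √10, onto plates anchored with vehicle, and the cells were left 5 days without changing medium. One step fixed, permeabilised and stained them with Hoechst, and MetaXpress counted nuclei in 4× images. Viability, as a median over plates, is treated-well nuclei divided by vehicle-well nuclei, with acceptance only at control CV below 25% and at least one doubling.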

[1] = compound: CN(C)C[C@@H]1CCn2cc(c3ccccc32)C2=C(C(=O)NC2=O)c2cn(c3ccccc23)CCO1 [Ruboxistaurin] + CCNC(=O)c1noc(-c2cc(C(C)C)c(O)cc2O)c1-c1ccc(CN2CCOCC2)cc1 [Luminespib] (partner 0.01 µM)
Summary of the method: (§1)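 The day after seeding in 1536-well plates, lung cancer cell lines were treated by pin tool with a single drug, or with a fixed anchor-drug dose together with five library-drug doses (not always all listed) in √10 steps. After 5 days, a combined fix-and-stain solution (final 0.05% Triton X-100, 1% formaldehyde, 1 ug/ml Hoechst) was added. Nuclei counted on 4× images gave relative viability as treated counts over vehicle counts, reported as the median of duplicate plates.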

[2] = compound: CN(C)C[C@@H]1CCn2cc(c3ccccc32)C2=C(C(=O)NC2=O)c2cn(c3ccccc23)CCO1 [Ruboxistaurin] + COc1cc2c(Oc3ccc(NC(=O)C4(C(=O)Nc5ccc(F)cc5)CC4)cc3F)ccnc2cc1OCCCN1CCOCC1 [Foretinib] (partner 0.25 µM)
Summary of the method: as §1

Ruboxistaurin + OSI-027 = compound: CN(C)C[C@@H]1CCn2cc(c3ccccc32)C2=C(C(=O)NC2=O)c2cn(c3ccccc23)CCO1 [Ruboxistaurin] + COc1cccc2cc(-c3nc([C@H]4CC[C@H](C(=O)O)CC4)n4ncnc(N)c34)[nH]c12 [OSI-027] (partner 0.5 µM)
Summary of the method: as §1

[3] = compound: CN(C)C[C@@H]1CCn2cc(c3ccccc32)C2=C(C(=O)NC2=O)c2cn(c3ccccc23)CCO1 [Ruboxistaurin] + Cc1cc(Nc2cc(N3CCN(C)CC3)nc(Sc3ccc(NC(=O)C4CC4)cc3)n2)n[nH]1 [Tozasertib] (partner 0.1 µM)
Summary of the method: as §1

[4] = compound: CN(C)C[C@@H]1CCn2cc(c3ccccc32)C2=C(C(=O)NC2=O)c2cn(c3ccccc23)CCO1 [Ruboxistaurin] + Cc1nc(Nc2ncc(C(=O)Nc3c(C)cccc3Cl)s2)cc(N2CCN(CCO)CC2)n1 [Dasatinib] (partner 0.075 µM)
Summary of the method: as §1

[5] = compound: CN(C)C[C@@H]1CCn2cc(c3ccccc32)C2=C(C(=O)NC2=O)c2cn(c3ccccc23)CCO1 [Ruboxistaurin] + N=C(N)NC(=N)NCCc1ccccc1 [Phenformin] (partner 250 µM)
Summary of the method: as §1

[6] = compound: CN(C)C[C@@H]1CCn2cc(c3ccccc32)C2=C(C(=O)NC2=O)c2cn(c3ccccc23)CCO1 [Ruboxistaurin] + CC(=O)Nc1cccc(-n2c(=O)n(C3CC3)c(=O)c3c(Nc4ccc(I)cc4F)n(C)c(=O)c(C)c32)c1 [Trametinib] (partner 0.02 µM)
Summary of the method: as §1

[7] = compound: CN(C)C[C@@H]1CCn2cc(c3ccccc32)C2=C(C(=O)NC2=O)c2cn(c3ccccc23)CCO1 [Ruboxistaurin] + CC(=O)c1c(C)c2cnc(Nc3ccc(N4CCNCC4)cn3)nc2n(C2CCCC2)c1=O [Palbociclib] (partner 0.5 µM)
Summary of the method: as §1

Ruboxistaurin + AZD7762 = compound: CN(C)C[C@@H]1CCn2cc(c3ccccc32)C2=C(C(=O)NC2=O)c2cn(c3ccccc23)CCO1 [Ruboxistaurin] + NC(=O)Nc1cc(-c2cccc(F)c2)sc1C(=O)N[C@H]1CCCNC1 [AZD7762] (partner 0.2 µM)
Summary of the method: as §1

[8] = compound: CN(C)C[C@@H]1CCn2cc(c3ccccc32)C2=C(C(=O)NC2=O)c2cn(c3ccccc23)CCO1 [Ruboxistaurin] + Nc1nc2[nH]cc(CCc3ccc(C(=O)N[C@@H](CCC(=O)O)C(=O)O)cc3)c2c(=O)[nH]1 [Pemetrexed] (partner 0.2 µM)
Summary of the method: as §1

[9] = compound: CN(C)C[C@@H]1CCn2cc(c3ccccc32)C2=C(C(=O)NC2=O)c2cn(c3ccccc23)CCO1 [Ruboxistaurin] + Nc1ncn([C@H]2C[C@H](O)[C@@H](CO)O2)c(=O)n1 [Decitabine] (partner 2 µM)
Summary of the method: as §1

[10] = compound: CN(C)C[C@@H]1CCn2cc(c3ccccc32)C2=C(C(=O)NC2=O)c2cn(c3ccccc23)CCO1 [Ruboxistaurin] + O=C(CCCCCCC(=O)Nc1ccccc1)NO [Vorinostat] (partner 1 µM)
Summary of the method: as §1

Ruboxistaurin + Olaparib = compound: CN(C)C[C@@H]1CCn2cc(c3ccccc32)C2=C(C(=O)NC2=O)c2cn(c3ccccc23)CCO1 [Ruboxistaurin] + O=C(c1cc(Cc2n[nH]c(=O)c3ccccc23)ccc1F)N1CCN(C(=O)C2CC2)CC1 [Olaparib] (partner 8 µM)
Summary of the method: as §1

Cell Line: NCI-H1623
- relative viability (Ruboxistaurin; 0.08 µM): 1.03
- relative viability (Ruboxistaurin; 0.8 µM): 0.922
- relative viability (Ruboxistaurin; 2.53 µM): 1.01
- relative viability (Ruboxistaurin; 8 µM): 0.977
- relative viability ([1]; first compound 0.08 µM): 0.595
- relative viability ([1]; first compound 0.8 µM): 0.391
- relative viability ([1]; first compound 2.53 µM): 0.639
- relative viability ([1]; first compound 8 µM): 0.401
- relative viability ([2]; first compound 0.08 µM): 0.895
- relative viability ([2]; first compound 0.8 µM): 0.747
- relative viability ([2]; first compound 2.53 µM): 0.933
- relative viability ([2]; first compound 8 µM): 0.837
- relative viability (Ruboxistaurin + OSI-027; first compound 0.08 µM): 0.341
- relative viability (Ruboxistaurin + OSI-027; first compound 0.8 µM): 0.416
- relative viability (Ruboxistaurin + OSI-027; first compound 2.53 µM): 0.423
- relative viability (Ruboxistaurin + OSI-027; first compound 8 µM): 0.374
- relative viability ([3]; first compound 0.08 µM): 0.429
- relative viability ([3]; first compound 0.8 µM): 0.405
- relative viability ([3]; first compound 2.53 µM): 0.459
- relative viability ([3]; first compound 8 µM): 0.436
- relative viability ([4]; first compound 0.08 µM): 0.505
- relative viability ([4]; first compound 0.8 µM): 0.5
- relative viability ([4]; first compound 2.53 µM): 0.525
- relative viability ([4]; first compound 8 µM): 0.531
- relative viability ([5]; first compound 0.08 µM): 0.632
- relative viability ([5]; first compound 0.8 µM): 0.58
- relative viability ([5]; first compound 2.53 µM): 0.693
- relative viability ([5]; first compound 8 µM): 0.563

Cell Line: NCI-H1648
- relative viability (Ruboxistaurin; 0.08 µM): 0.894
- relative viability (Ruboxistaurin; 0.8 µM): 0.966
- relative viability (Ruboxistaurin; 2.53 µM): 1.11
- relative viability (Ruboxistaurin; 8 µM): 1.15
- relative viability ([6]; first compound 0.08 µM): 0.643
- relative viability ([6]; first compound 0.8 µM): 0.53
- relative viability ([6]; first compound 2.53 µM): 0.455
- relative viability ([6]; first compound 8 µM): 0.681
- relative viability ([7]; first compound 0.08 µM): 0.248
- relative viability ([7]; first compound 0.8 µM): 0.254
- relative viability ([7]; first compound 2.53 µM): 0.285
- relative viability ([7]; first compound 8 µM): 0.247
- relative viability (Ruboxistaurin + OSI-027; first compound 0.08 µM): 0.246
- relative viability (Ruboxistaurin + OSI-027; first compound 0.8 µM): 0.278
- relative viability (Ruboxistaurin + OSI-027; first compound 2.53 µM): 0.291
- relative viability (Ruboxistaurin + OSI-027; first compound 8 µM): 0.274
- relative viability ([3]; first compound 0.08 µM): 0.439
- relative viability ([3]; first compound 0.8 µM): 0.438
- relative viability ([3]; first compound 2.53 µM): 0.482
- relative viability ([3]; first compound 8 µM): 0.792
- relative viability (Ruboxistaurin + AZD7762; first compound 0.08 µM): 0.621
- relative viability (Ruboxistaurin + AZD7762; first compound 0.8 µM): 0.591
- relative viability (Ruboxistaurin + AZD7762; first compound 2.53 µM): 0.835
- relative viability (Ruboxistaurin + AZD7762; first compound 8 µM): 0.865
- relative viability ([8]; first compound 0.08 µM): 0.699
- relative viability ([8]; first compound 0.8 µM): 0.717
- relative viability ([8]; first compound 2.53 µM): 0.612
- relative viability ([8]; first compound 8 µM): 0.894
- relative viability ([9]; first compound 0.08 µM): 0.514
- relative viability ([9]; first compound 0.8 µM): 0.501
- relative viability ([9]; first compound 2.53 µM): 0.44
- relative viability ([9]; first compound 8 µM): 0.536
- relative viability ([10]; first compound 0.08 µM): 0.622
- relative viability ([10]; first compound 0.8 µM): 0.433
- relative viability ([10]; first compound 2.53 µM): 0.425
- relative viability ([10]; first compound 8 µM): 0.634
- relative viability (Ruboxistaurin + Olaparib; first compound 0.08 µM): 1.33
- relative viability (Ruboxistaurin + Olaparib; first compound 0.8 µM): 0.64
- relative viability (Ruboxistaurin + Olaparib; first compound 2.53 µM): 0.797
- relative viability (Ruboxistaurin + Olaparib; first compound 8 µM): 1.22

Cell Line: NCI-H2342
- relative viability (Ruboxistaurin; 0.08 µM): 1.02
- relative viability (Ruboxistaurin; 0.8 µM): 0.915
- relative viability (Ruboxistaurin; 2.53 µM): 1.06
- relative viability (Ruboxistaurin; 8 µM): 1.04
- relative viability ([6]; first compound 0.08 µM): 0.799
- relative viability ([6]; first compound 0.8 µM): 0.849
- relative viability ([6]; first compound 2.53 µM): 0.986
- relative viability ([6]; first compound 8 µM): 0.95
- relative viability ([7]; first compound 0.08 µM): 0.456
- relative viability ([7]; first compound 0.8 µM): 0.53
- relative viability ([7]; first compound 2.53 µM): 0.512
- relative viability ([7]; first compound 8 µM): 0.518
- relative viability ([1]; first compound 0.08 µM): 0.762
- relative viability ([1]; first compound 0.8 µM): 0.732
- relative viability ([1]; first compound 2.53 µM): 0.892
- relative viability ([1]; first compound 8 µM): 0.738
- relative viability ([2]; first compound 0.08 µM): 1.2
- relative viability ([2]; first compound 0.8 µM): 0.83
- relative viability ([2]; first compound 2.53 µM): 1.06
- relative viability ([2]; first compound 8 µM): 1.18
- relative viability (Ruboxistaurin + OSI-027; first compound 0.08 µM): 0.678
- relative viability (Ruboxistaurin + OSI-027; first compound 0.8 µM): 0.672
- relative viability (Ruboxistaurin + OSI-027; first compound 2.53 µM): 0.608
- relative viability (Ruboxistaurin + OSI-027; first compound 8 µM): 0.698
- relative viability ([3]; first compound 0.08 µM): 0.578
- relative viability ([3]; first compound 0.8 µM): 0.56
- relative viability ([3]; first compound 2.53 µM): 0.461
- relative viability ([3]; first compound 8 µM): 0.497
- relative viability ([4]; first compound 0.08 µM): 0.364
- relative viability ([4]; first compound 0.8 µM): 0.312
- relative viability ([4]; first compound 2.53 µM): 0.303
- relative viability ([4]; first compound 8 µM): 0.277
- relative viability ([5]; first compound 0.08 µM): 0.626
- relative viability ([5]; first compound 0.8 µM): 0.585
- relative viability ([5]; first compound 2.53 µM): 0.616
- relative viability ([5]; first compound 8 µM): 0.597
- relative viability (Ruboxistaurin + AZD7762; first compound 0.08 µM): 0.535
- relative viability (Ruboxistaurin + AZD7762; first compound 0.8 µM): 0.509
- relative viability (Ruboxistaurin + AZD7762; first compound 2.53 µM): 0.529
- relative viability (Ruboxistaurin + AZD7762; first compound 8 µM): 0.582
- relative viability ([8]; first compound 0.08 µM): 0.793
- relative viability ([8]; first compound 0.8 µM): 0.825
- relative viability ([8]; first compound 2.53 µM): 0.874
- relative viability ([8]; first compound 8 µM): 0.817
- relative viability ([9]; first compound 0.08 µM): 0.689
- relative viability ([9]; first compound 0.8 µM): 0.737
- relative viability ([9]; first compound 2.53 µM): 0.757
- relative viability ([9]; first compound 8 µM): 0.819
- relative viability ([10]; first compound 0.08 µM): 0.888
- relative viability ([10]; first compound 0.8 µM): 0.69
- relative viability ([10]; first compound 2.53 µM): 0.768
- relative viability ([10]; first compound 8 µM): 0.93
- relative viability (Ruboxistaurin + Olaparib; first compound 0.08 µM): 0.414
- relative viability (Ruboxistaurin + Olaparib; first compound 0.8 µM): 0.483
- relative viability (Ruboxistaurin + Olaparib; first compound 2.53 µM): 0.511
- relative viability (Ruboxistaurin + Olaparib; first compound 8 µM): 0.436
